What all share (experiment): NCI tumour cell line growth inhibition, 48 h
The subject of assay [1] is HOP-62 NSCLC.
Assay [2] concerns SK-MEL-28 melanoma.
Assay [3] deals with UACC-62 melanoma.
Assay [4] deals with NCI-H460 lung.
For assay [5], the system named is KM12 colon.
The subject of assay [6] is CCRF-CEM leukemia.
The subject of assay [7] is DU-145 prostate.
The subject of assay [8] is ACHN renal.
Assay [9] deals with UO-31 renal.
Assay [10] relates to SNB-19 CNS.
In assay [11] the test system is M14 melanoma.
Assay [12] deals with LOX IMVI melanoma.
Assay [13] has as its system SF-268 CNS.
Assay [14] has as its system SK-MEL-5 melanoma.
Assay [15] relates to MCF7 breast.
In assay [16] the test system is HT29 colon.

Among the data in PubChem BioAssay (NCI) are TGI values, retold here.

Molecules are shown by their SMILES.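 How tested: cells in 96-well plates exposed to compound for 48 hours at five concentrations. TGI denotes the concentration required for complete inhibition of growth.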 A value given as a limit tells only on which side of the number the result lay.

For the compound `CN(C)c1nc(-c2ccccc2)c(C(=O)c2c[nH]c3ccccc23)s1`, the TGI in assay [1] was over 100 µM; in assay [2], over 100 µM; in assay [3], over 100 µM; in assay [4] it was over 79.2 µM; in assay [5] it was over 100 µM; in assay [6], over 60.5 µM. Moreover, the TGI in [7], in assay [8], in assay [9], in [10], in assay [11] and in assay [12] was over 100 µM each time. The TGI in assay [13], in assay [14], in assay [15] and in assay [16] was over 100 µM throughout.

On to `O=C(OC(=C(c1ccccc1)c1ccccc1)N1CCCC1=S)C(c1ccccc1)c1ccccc1`, for which the TGI in [1], in assay [2], in assay [3], in [4], in assay [5] and in [6] was over 10 µM throughout. The TGI in assay [7], in assay [8], in assay [9], in assay [10], in assay [11] and in assay [12] was over 10 µM throughout. Besides, the TGI in assay [13], in assay [14], in assay [15] and in assay [16] was over 10 µM throughout.

With `Cn1c(-c2ccc(/C=N\N3CCN(/N=C/c4ccc(-c5c[n+]6ccsc6n5C)cc4)CC3)cc2)c[n+]2ccsc12`, the TGI in assay [3] is 95.7 µM; in assay [4] it was over 100 µM; in [5], over 100 µM; in assay [6], over 100 µM; in assay [7] it was over 100 µM; in assay [8], over 100 µM. Also, the TGI was over 100 µM in assay [9]; over 100 µM in [10]; over 100 µM in assay [11]; over 100 µM in assay [12]; over 100 µM in assay [13]; 84.6 µM in assay [14]. The TGI in assay [15] and in [16] was over 100 µM each time.

With `CCOC(=O)c1[nH]c2ccccc2c1C(=O)C[C@H](NC(=O)C(F)(F)F)C(=O)OC`, the TGI in assay [1], in assay [2], in [4], in [5], in [6] and in [7] was over 100 µM throughout. The TGI in assay [8], in [9], in assay [10], in [11], in assay [12] and in assay [13] was over 100 µM each time. Further, the TGI in assay [14], in assay [15] and in [16] was over 100 µM each time.

In the case of `O=S(CCCl)c1c2ccccc2nc2ccccc12` (stereo unspecified), the TGI in assay [1], in assay [2], in assay [3], in [4], in [5] and in [6] was over 100 µM each time. Moreover, the TGI in [7], in assay [8], in [9], in assay [10], in assay [11] and in assay [12] was over 100 µM each time. For the same compound, the TGI in [13], in assay [15] and in assay [16] was over 100 µM throughout.

Regarding `CN(C1=NCCO1)c1cccc2c1CCCC2`, the TGI is over 10 µM in assay [1]; over 10 µM in assay [2]; over 10 µM in assay [3]; over 10 µM in [4]; over 10 µM in assay [5]; 8.06 µM in [6]. Moreover, the TGI in [7] was over 10 µM; in [8], 8.09 µM; in assay [10], over 10 µM; in [11] it was 6.09 µM; in [12] it was 5.27 µM; in [13], over 10 µM. Also, the results for the TGI in assay [14], in [15] and in [16] were 4.84 µM, over 10 µM and 5.2 µM, respectively.

Regarding `COc1ccccc1Cn1nc(OC)c2cc([N+](=O)[O-])ccc21`, the TGI in [1] is 20.3 µM; in [2], over 100 µM; in [4], over 100 µM; in [5] it was over 100 µM; in assay [6], over 100 µM; in [7], over 100 µM. Moreover, the TGI was over 100 µM in [8]; over 79.6 µM in assay [9]; 41.5 µM in [10]; over 100 µM in [11]; over 100 µM in assay [12]; 36.9 µM in [13]. Also, the TGI in [14], in [15] and in [16] was over 100 µM throughout.

As to `COc1cccc(N2C(=O)CSC2c2cc(OC)c(OC)c(OC)c2)c1` (stereo unspecified), the TGI in [2] was over 100 µM; in assay [3], over 100 µM; in assay [4], over 100 µM; in [5], over 100 µM; in [6], 65 µM; in assay [7], 39.7 µM. For the same compound, the TGI was over 100 µM in assay [8]; over 100 µM in assay [9]; 63 µM in assay [10]; over 100 µM in [11]; over 100 µM in [12]; over 100 µM in assay [13]. For the same compound, the TGI in [14], in assay [15] and in assay [16] was over 100 µM each time.
